US12239643B2, “Therapeutic agent for inflammatory diseases, autoimmune diseases, fibrotic diseases, and cancer diseases” (MEIJI SEIKA PHARMA CO., LTD., priority 2018, dated 2025)
Where two headings read alike, the source gives them in different places.

What was measured:
[1] = Hepatic metabolic stability (rat liver microsome method); type: in vitro ADME; conditions: rat liver microsomes 0.5 mg/mL, test substance 1 μM, NADPH 1 mM, 37° C., 30 minutes
Summary of the method: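 Rat liver microsomes (0.5 mg/mL final) with test compound (1 μM final) in 100 mM potassium phosphate pH 7.4, 37° C; reaction started with NADPH (1 mM final) after 5 min preincubation. Acetonitrile stop at 0 and 30 min, LC-MS quantitation; % remaining = 30 min/0 min ×100, graded A ≥75%, B 60–<75%, C 45–<60%, D <45%.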

PDE4 = test: Evaluation of PDE4 inhibitory activity, scintillation proximity assay; type: biochemical; conditions: scintillation proximity assay
Summary of the method: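 SPA with [2,8-3H]-cAMP and diluted PDE4 enzyme preparation in 50 mM Tris-HCl pH 7.4, 8.3 mM MgCl2, 1.7 mM EGTA, 3 mg/mL BSA, 120 min at room temperature. Product captured on ZnSO4-containing YSi-SPA beads, scintillation counted; IC50 from inhibition curves vs DMSO control and no-enzyme blank.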

[2] = read-out: PDE4 Inhibitory Activity (Evaluation 1; concentration for the inhibition rate of 50%)

| SMILES | Residual ratio (% remaining for 30-minute reaction) [1] | IC50 (PDE4; class symbols of Evaluation 1, read-out: PDE4 Inhibitory Activity (concentration for the inhibition rate of 50%, IC50), Evaluation 1) | IC50 (PDE4; [2]) |
| --- | --- | --- | --- |
| Fc1ccc(-c2cc(Cl)c(OC(F)(F)F)c3nc(N4CC5CCC(C4)N5)oc23)nc1 [Example 10, 2-(3,8-Diazabicyclo[3.2.1]octan-3-yl)-5-chloro-7-(5-fluoropyridin-2-yl)-4-(trifluoromethoxy)benzo[d]oxazole] | A (A: a % remaining rate of 75% or more) | < 100 nM |  |
| OC1CC(Oc2ccc(-c3nccs3)c3oc(N4CC5CC(C4)N5)nc23)C1 (centres unmarked) [Example 285, 3-((2-(3,6-Diazabicyclo[3.1.1]heptan-3-yl)-7-(thiazol-2-yl)benzo[d]oxazol-4-yl)oxy)cyclobutan-1-ol] | A (A: a % remaining rate of 75% or more) |  | < 100 nM |
| CC(C)(O)C(F)(F)Oc1ccc(-c2nccs2)c2oc(N3CC4CCC(C3)N4)nc12 [Example 405, 1-((2-(3,8-Diazabicyclo[3.2.1]octan-3-yl)-7-(thiazol-2-yl)benzo[d]oxazol-4-yl)oxy)-1,1-difluoro-2-methylpropan-2-ol] | B (B: 60% or more and less than 75%) |  | < 100 nM |
| CCNC(=O)c1ccc(-c2nccs2)c2oc(N3CC4CC(C3)N4)nc12 [Example 358, 2-(3,6-Diazabicyclo[3.1.1]heptan-3-yl)-N-ethyl-7-(thiazol-2-yl)benzo[d]oxazole-4-carboxamide] | A (A: a % remaining rate of 75% or more) |  | < 100 nM |
| O=C(N1CCOCC1)C(F)(F)Oc1ccc(-c2nccs2)c2oc(N3CC4CC(C3)N4)nc12 [Example 409, 2-((2-(3,6-Diazabicyclo[3.1.1]heptan-3-yl)-7-(thiazol-2-yl)benzo[d]oxazol-4-yl)oxy)-2,2-difluoro-1-morpholinoethan-1-one] | B (B: 60% or more and less than 75%) |  | < 100 nM |
| COCC(F)(F)Oc1ccc(-c2nccs2)c2oc(N3CC4CC(C3)N4)nc12 [Example 392, 2-(3,6-Diazabicyclo[3.1.1]heptan-3-yl)-4-(1,1-difluoro-2-methoxyethoxy)-7-(thiazol-2-yl)benzo[d]oxazole] | B (B: 60% or more and less than 75%) |  | < 100 nM |
| NC(=O)C(F)(F)Oc1ccc(-c2nccs2)c2oc(N3CC4CC(C3)N4)nc12 [Example 410, 2-((2-(3,6-Diazabicyclo[3.1.1]heptan-3-yl)-7-(thiazol-2-yl)benzo[d]oxazol-4-yl)oxy)-2,2-difluoroacetamide] | A (A: a % remaining rate of 75% or more) |  | < 100 nM |
| c1csc(-c2ccc(N3CCOCC3)c3nc(N4CC5CC(C4)N5)oc23)n1 [Example 369, 2-(3,6-Diazabicyclo[3.1.1]heptan-3-yl)-4-morpholino-7-(thiazol-2-yl)benzo[d]oxazole] | B (B: 60% or more and less than 75%) |  | < 100 nM |
| N#Cc1ccc(-c2nccs2)c2oc(N3CC4CC(C3)N4)nc12 [Example 335, 2-(3,6-Diazabicyclo[3.1.1]heptan-3-yl)-7-(thiazol-2-yl)benzo[d]oxazole-4-carbonitrile] | A (A: a % remaining rate of 75% or more) |  | < 100 nM |
| Cc1csc(-c2ccc(OC(F)(F)C(C)(C)O)c3nc(N4CC5CC(C4)N5)oc23)n1 [Example 306, 1-((2-(3,6-Diazabicyclo[3.1.1]heptan-3-yl)-7-(4-methylthiazol-2-yl)benzo[d]oxazol-4-yl)oxy)-1,1-difluoro-2-methylpropan-2-ol] | A (A: a % remaining rate of 75% or more) |  | 100 to 1000 nM |
| CC(C)(O)C(F)(F)Oc1ccc(-c2ncco2)c2oc(N3CC4CCC(C3)N4)nc12 [Example 321, 1-((2-(3,8-Diazabicyclo[3.2.1]octan-3-yl)-7-(oxazol-2-yl)benzo[d]oxazol-4-yl)oxy)-1,1-difluoro-2-methylpropan-2-ol] | A (A: a % remaining rate of 75% or more) |  | < 100 nM |
| CC(O)C(F)(F)Oc1ccc(-c2nccs2)c2oc(N3CC4CC(C3)N4O)nc12 (single isomer, unassigned) [Example 372, 3-(4-(1,1-Difluoro-2-hydroxypropoxy)-7-(thiazol-2-yl)benzo[d]oxazol-2-yl)-3,6-diazabicyclo[3.1.1]heptan-6-ol] | B (B: 60% or more and less than 75%) |  | < 100 nM |
| CC(C)(O)C(F)(F)Oc1ccc(-c2ncns2)c2oc(N3CC4CCC(C3)N4)nc12 [Example 327, 1-((2-(3,8-Diazabicyclo[3.2.1]octan-3-yl)-7-(1,2,4-thiadiazol-5-yl)benzo[d]oxazol-4-yl)oxy)-1,1-difluoro-2-methylpropan-2-ol] | B (B: 60% or more and less than 75%) |  | < 100 nM |
| Cn1ccc(-c2ccc(OC(F)(F)C(C)(C)O)c3nc(N4CC5CCC(C4)N5)oc23)n1 [Example 328, 1-((2-(3,8-Diazabicyclo[3.2.1]octan-3-yl)-7-(1-methyl-1H-pyrazol-3-yl)benzo[d]oxazol-4-yl)oxy)-1,1-difluoro-2-methylpropan-2-ol] | A (A: a % remaining rate of 75% or more) |  | < 100 nM |
| O=C(c1ccc(-c2nccs2)c2oc(N3CC4CC(C3)N4)nc12)N1CCOCC1 [Example 359, (2-(3,6-Diazabicyclo[3.1.1]heptan-3-yl)-7-(thiazol-2-yl)benzo[d]oxazol-4-yl) (morpholino)methanone] | A (A: a % remaining rate of 75% or more) |  | 100 to 1000 nM |
| OCC(F)(F)Oc1ccc(-c2nccs2)c2oc(N3CC4CC(C3)N4O)nc12 [Example 374, 3-(4-(1,1-Difluoro-2-hydroxyethoxy)-7-(thiazol-2-yl)benzo[d]oxazol-2-yl)-3,6-diazabicyclo[3.1.1]heptan-6-ol] | B (B: 60% or more and less than 75%) |  | < 100 nM |
| Cn1ccc(-c2ccc(OC(F)(F)C(C)(C)O)c3nc(N4CC5CC(C4)N5)oc23)n1 [Example 394, 1-((2-(3,6-Diazabicyclo[3.1.1]heptan-3-yl)-7-(1-methyl-1H-pyrazol-3-yl)benzo[d]oxazol-4-yl)oxy)-1,1-difluoro-2-methylpropan-2-ol] | A (A: a % remaining rate of 75% or more) |  | 100 to 1000 nM |
| CC(O)(CO)C(F)(F)Oc1ccc(-c2nccs2)c2oc(N3CC4CC(C3)N4)nc12 (single isomer, unassigned) [Example 364, 3-((2-(3,6-Diazabicyclo[3.1.1]heptan-3-yl)-7-(thiazol-2-yl)benzo[d]oxazol-4-yl)oxy)-3,3-difluoro-2-methylpropane-1,2-diol] | A (A: a % remaining rate of 75% or more) |  | < 100 nM |
| CS(=O)(=O)c1ccc(-c2nccs2)c2oc(N3CC4CC(C3)N4)nc12 [Example 347, 2-(3,6-Diazabicyclo[3.1.1]heptan-3-yl)-4-(methylsulfonyl)-7-(thiazol-2-yl)benzo[d]oxazole] | A (A: a % remaining rate of 75% or more) |  | < 100 nM |
| OC1CCN(c2ccc(-c3nccs3)c3oc(N4CC5CC(C4)N5)nc23)CC1 [Example 397, 1-(2-(3,6-Diazabicyclo[3.1.1]heptan-3-yl)-7-(thiazol-2-yl)benzo[d]oxazol-4-yl)piperidin-4-ol] | A (A: a % remaining rate of 75% or more) |  | < 100 nM |
| NC(=O)c1ccc(-c2nccs2)c2oc(N3CC4CC(C3)N4)nc12 [Example 354, 2-(3,6-Diazabicyclo[3.1.1]heptan-3-yl)-7-(thiazol-2-yl)benzo[d]oxazole-4-carboxamide] | A (A: a % remaining rate of 75% or more) |  | < 100 nM |
| CC(O)(CO)C(F)(F)Oc1ccc(-c2nccs2)c2oc(N3CC4CC(C3)N4)nc12 (racemic) [Example 326, 3-((2-(3,6-Diazabicyclo[3.1.1]heptan-3-yl)-7-(thiazol-2-yl)benzo[d]oxazol-4-yl)oxy)-3,3-difluoro-2-methylpropane-1,2-diol] | A (A: a % remaining rate of 75% or more) |  | < 100 nM |
| OCC(F)(F)Oc1ccc(-c2ccc(F)cn2)c2oc(N3CC4CC(C3)N4)nc12 [Example 319, 2-((2-(3,6-Diazabicyclo[3.1.1]heptan-3-yl)-7-(5-fluoropyridin-2-yl)benzo[d]oxazol-4-yl)oxy)-2,2-difluoroethan-1-ol] | A (A: a % remaining rate of 75% or more) |  | < 100 nM |
| [O-][S+](CCO)c1ccc(-c2nccs2)c2oc(N3CC4CC(C3)N4)nc12 (centres unmarked) [Example 349, 2-((2-(3,6-Diazabicyclo[3.1.1]heptan-3-yl)-7-(thiazol-2-yl)benzo[d]oxazol-4-yl)sulfinyl)ethan-1-ol] | A (A: a % remaining rate of 75% or more) |  | < 100 nM |
| CC(O)C(F)(F)Oc1ccc(-c2nccs2)c2oc(N3CC4CC(C3)N4O)nc12 (single isomer, unassigned) [Example 373, 3-(4-(1,1-Difluoro-2-hydroxypropoxy)-7-(thiazol-2-yl)benzo[d]oxazol-2-yl)-3,6-diazabicyclo[3.1.1]heptan-6-ol] | B (B: 60% or more and less than 75%) |  | < 100 nM |
